Data taken from US9717733B2, “Edible plant-derived microvesicle compositions including conjugated therapeutic agents and methods for using the same” (priority 2014, dated 2017).

How the values were obtained:
[1] = tested on: DSS-induced colitis in mice; test: DSS-induced colitis, therapeutic effect of GMTX; format: in vivo, mouse; settings: 5 mg/kg oral on day 3, 5 and 6 of DSS
Description: Colitis was induced in mice by addition of 2% (wt/vol) DSS (MW 36-50 KD molecular weight, MP Biomedicals, OH) in their drinking water for the duration of the study. DSS solution was freshly prepared every other day. Body weight and physical activity were monitored daily. To test the protective effect of GDNs, mice fasted for 4 h were orally given either PBS or 10 mg/kg of GDNs daily for 7 days and then treated with 2% DSS in drinking water for 7 days to induce colitis with continued administration of GDNs. To test the therapeutic effect of GMTX, colitis was first induced in mice by providing 2% DSS in their drinking water. On day 3, 5 and 6 of DSS-induced colitis, mice were treated with free MTX (5 mg/kg body weight) or GMTX (MTX equaled to 5 mg/kg) by oral administration. […]
For histopathology, tissues were fixed in 10% neutral formalin and then embedded in paraffin. […] Histological examination was performed in a blinded fashion and the severity of colitis was scored as described previously. […] E-cadherin and F4/80 binding was detected by Alexa Fluor 488 conjugated goat anti-mouse IgG or goat anti-rat IgG (1:600, Invitrogen), respectively. […]
To assess the local levels of IL-6, IL-1β, TNF-α, organ cultures were generated from naïve, GDN, PBS/DSS and GDN/DSS challenged mice. […] The local levels of PGE2 were determined by a PGE2-specific EIA (Cayman Chemical, Ann Arbor, Mich.) as described previously. […]

[2] = tested on: Raw264.7 macrophages; test: Internalization assay (GDN uptake with endocytosis inhibitors); format: cell-based, mouse; settings: 30 min pretreatment: 50 μM amiloride, 12.5 μM chlorpromazine or 100 μM indomethacin; 2 μg/ml PKH26-labeled GDNs, 3 h
Description: Macrophages were plated on Lab-Tek chamber slide (Sigma) and incubated for 24 h in growth medium. Before the uptake assay, GDNs were labeled with PKH26, sucrose gradient purified and diluted in PBS. Uptake was performed by incubating cell cultures with 2 μg/ml of GDNs for 3 h in a humid chamber (37° C., 5% CO2). For inhibition experiments, cell cultures were pre-incubated with individual inhibitors for 30 min before performing the uptake experiments.

CN(Cc1cnc2nc(N)nc(N)c2n1)c1ccc(C(=O)N[C@@H](CCC(=O)O)C(=O)O)cc1 [free MTX, methotrexate]
symptoms of colitis vs PBS treated mice (colon tissue damage, colon length reduction, E-cadherin expression) [1]: aggravated symptoms of colitis

COc1ccc2c(c1)c(CC(=O)O)c(C)n2C(=O)c1ccc(Cl)cc1 [indomethacin]
inhibition of GDN uptake [2]: did not significantly alter
